Measurements published in patent US10973832B2, “Muscarinic M1 receptor agonists” (Heptares Therapeutics Limited, priority 2011, dated 2021).

Legend:
Format in all cases: cell-based
[1] = target: T1, human muscarinic M3 receptor (Homo sapiens, UniProt P20309); experiment: Phospho-ERK1/2 assay, muscarinic M3; conditions: for EC50: phospho-ERK1/2 Alphascreen, read-out: pEC50 M3 (converted); for Emax: CHO, read-out: % Emax cf. ACh (M3)
T1 construct: expressed in transfected cells
Experimental: (§1) Functional assays were performed using the Alphascreen Surefire phospho-ERK1/2 assay (Crouch & Osmond, Comb. Chem. High Throughput Screen, 2008). ERK1/2 phosphorylation is a downstream consequence of both Gq/11 and Gi/o protein coupled receptor activation, making it highly suitable for the assessment of M1, M3 (Gq/11 coupled) and M2, M4 receptors (Gi/o coupled), rather than using different assay formats for different receptor subtypes. CHO cells stably expressing the human muscarinic M1, M2, M3 or M4 receptor were plated (25K/well) onto 96-well tissue culture plates in MEM-alpha+10% dialysed FBS. Once adhered, cells were serum-starved overnight. Agonist stimulation was performed by the addition of 5 μL agonist to the cells for 5 min (37° C.). Media was removed and 50 μL of lysis buffer added. After 15 min, a 4 μL sample was transferred to 384-well plate and 7 μL of detection mixture added. Plates were incubated for 2 h with gentle agitation in the dark and then read on a PHERAstar plate reader.
(§2) pEC50 and Emax figures were calculated from the resulting data for each receptor subtype.

[2] = target: T2, human muscarinic M4 receptor (Homo sapiens, UniProt P08173); experiment: Phospho-ERK1/2 assay, muscarinic M4; conditions: for EC50: phospho-ERK1/2 Alphascreen, read-out: pEC50 M4 (converted); for Emax: CHO, read-out: % Emax cf. ACh (M4)
T2 construct: expressed in transfected cells
T2 sequence (P08173 1-479): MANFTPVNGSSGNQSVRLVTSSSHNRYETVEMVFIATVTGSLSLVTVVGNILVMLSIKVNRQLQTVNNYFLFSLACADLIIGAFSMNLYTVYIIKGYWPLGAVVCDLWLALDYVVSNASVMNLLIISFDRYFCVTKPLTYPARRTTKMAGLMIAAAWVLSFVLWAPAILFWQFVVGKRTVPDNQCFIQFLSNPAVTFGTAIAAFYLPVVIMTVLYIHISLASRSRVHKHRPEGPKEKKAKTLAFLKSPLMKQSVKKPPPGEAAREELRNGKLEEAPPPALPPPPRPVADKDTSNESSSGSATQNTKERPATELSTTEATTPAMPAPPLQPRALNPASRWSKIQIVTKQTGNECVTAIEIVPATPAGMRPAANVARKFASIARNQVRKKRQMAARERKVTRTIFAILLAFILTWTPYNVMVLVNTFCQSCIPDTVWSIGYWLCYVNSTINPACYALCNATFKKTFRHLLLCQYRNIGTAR
Experimental: as §1, §2

[3] = target: T3, human muscarinic M2 receptor (Homo sapiens, UniProt P08172); experiment: Phospho-ERK1/2 assay, muscarinic M2; conditions: for EC50: CHO cells expressing human M2, phospho-ERK1/2 Alphascreen, read-out: pEC50 M2 (converted); for Emax: CHO, read-out: % Emax cf. ACh (M2)
T3 sequence (P08172 1-466): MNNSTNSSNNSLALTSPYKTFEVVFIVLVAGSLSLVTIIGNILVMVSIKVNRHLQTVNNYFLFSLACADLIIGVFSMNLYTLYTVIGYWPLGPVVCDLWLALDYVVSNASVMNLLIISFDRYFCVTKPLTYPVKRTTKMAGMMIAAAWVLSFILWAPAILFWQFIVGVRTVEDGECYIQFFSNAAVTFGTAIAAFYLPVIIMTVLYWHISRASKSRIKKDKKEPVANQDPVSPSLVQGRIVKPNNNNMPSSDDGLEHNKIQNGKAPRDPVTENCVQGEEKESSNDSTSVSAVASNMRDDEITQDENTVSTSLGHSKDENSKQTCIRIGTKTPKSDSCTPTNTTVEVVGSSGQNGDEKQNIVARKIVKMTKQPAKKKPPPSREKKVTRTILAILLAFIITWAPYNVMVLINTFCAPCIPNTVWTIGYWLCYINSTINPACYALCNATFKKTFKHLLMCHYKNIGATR
Experimental: as §1, §2

[4] = target: T4, human muscarinic M1 receptor (Homo sapiens, UniProt P11229); experiment: Phospho-ERK1/2 assay, muscarinic M1; conditions: for EC50: CHO cells expressing human M1, phospho-ERK1/2 Alphascreen, read-out: pEC50 M1 (converted); for Emax: CHO, read-out: % Emax cf. ACh (M1)
T4 sequence (P11229 1-460): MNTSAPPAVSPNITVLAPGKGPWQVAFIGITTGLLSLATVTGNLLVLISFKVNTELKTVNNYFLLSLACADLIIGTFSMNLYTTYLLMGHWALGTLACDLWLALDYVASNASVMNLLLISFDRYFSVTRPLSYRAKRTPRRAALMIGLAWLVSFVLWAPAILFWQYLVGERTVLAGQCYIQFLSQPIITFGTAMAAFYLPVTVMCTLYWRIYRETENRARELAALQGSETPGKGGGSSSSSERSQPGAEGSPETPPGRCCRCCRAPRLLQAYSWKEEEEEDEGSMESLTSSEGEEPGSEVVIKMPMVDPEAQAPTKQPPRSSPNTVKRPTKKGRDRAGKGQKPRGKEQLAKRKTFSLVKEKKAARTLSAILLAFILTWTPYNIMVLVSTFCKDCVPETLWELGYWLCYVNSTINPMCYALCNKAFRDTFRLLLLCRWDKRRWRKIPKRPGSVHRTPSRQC
Experimental: as §1, §2

T1 sequence (P20309 whole entry): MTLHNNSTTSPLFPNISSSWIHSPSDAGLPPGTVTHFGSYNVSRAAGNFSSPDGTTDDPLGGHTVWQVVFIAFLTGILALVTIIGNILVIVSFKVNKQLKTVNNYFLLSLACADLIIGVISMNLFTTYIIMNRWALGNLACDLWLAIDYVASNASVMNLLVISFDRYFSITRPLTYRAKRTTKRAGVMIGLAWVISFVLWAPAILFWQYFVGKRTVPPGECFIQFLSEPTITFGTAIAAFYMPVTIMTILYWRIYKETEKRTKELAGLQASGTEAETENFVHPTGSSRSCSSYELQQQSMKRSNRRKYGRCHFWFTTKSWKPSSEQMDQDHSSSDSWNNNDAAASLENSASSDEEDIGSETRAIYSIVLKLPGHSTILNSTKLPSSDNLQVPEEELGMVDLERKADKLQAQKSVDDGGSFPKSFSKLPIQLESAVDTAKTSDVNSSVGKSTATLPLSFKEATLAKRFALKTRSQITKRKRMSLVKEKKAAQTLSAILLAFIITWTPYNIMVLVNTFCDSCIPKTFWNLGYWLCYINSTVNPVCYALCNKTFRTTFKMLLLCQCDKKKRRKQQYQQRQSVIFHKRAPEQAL

| SMILES | EC50 ([1]; CHO cells expressing human M3) | Emax [1] | EC50 ([2]; CHO cells expressing human M4) | Emax [2] | EC50 [3] | Emax [3] | EC50 [4] | Emax [4] | % Emax cf. ACh (M3) ([1]; CHO cells expressing human M3, Emax relative to ACh) | % Emax cf. ACh (M4) ([2]; CHO cells expressing human M4, Emax relative to ACh) |
| --- | --- | --- | --- | --- | --- | --- | --- | --- | --- | --- |
| CCOC(=O)N1CCC[C@H](N2CCC(C(=O)NCC(C)C)CC2)CC1 [Example 63] | > 20000 nM | 5% | 646 nM | 89% | > 20000 nM | 5% | 69.2 nM | 107% |  |  |
| CCOC(=O)N1CCCC(N2CCC(F)(C(=O)NC(C)(C)C(C)C)CC2)CC1 (centres unmarked) [Example 44, ethyl 4-(4-fluoro-4-((2,3-dimethylbutan-2-yl)carbamoyl)piperidin-1-yl)azepane-1-carboxylate] | > 20000 nM | 5% | 417 nM | 113% | > 20000 nM | 19% | 31.6 nM | 104% |  |  |
| CCOC(=O)N1CCCC(N2CCC(C(=O)NCC3CC3)CC2)CC1 (centres unmarked) [Example 15, ethyl 4-(4-((cyclopropylmethyl)carbamoyl)piperidin-1-yl)azepane-1-carboxylate] | > 20000 nM | 12% | 550 nM | 67% | > 20000 nM | 5% | 112 nM | 107% |  |  |
| CCOC(=O)N1CCCC(N2CCC(C(=O)NCC(C)C3CC3)CC2)CC1 (centres unmarked) [Example 39, ethyl 4-(4-((2-cyclopropylpropyl)carbamoyl)piperidin-1-yl)azepane-1-carboxylate] | > 20000 nM | 8% | > 20000 nM | 13% | > 20000 nM | 2% | 72.4 nM | 96% |  |  |
| CCOC(=O)N1CCCC(N2CCC(F)(C(=O)NC3CCC3)CC2)CC1 (centres unmarked) [Example 55, ethyl 4-(4-fluoro-4-((cyclobutyl)carbamoyl)piperidin-1-yl)azepane-1-carboxylate] | > 20000 nM | 0% | 1350 nM | 69% | > 20000 nM | 17% | 186 nM | 75% |  |  |
| CCOC(=O)N1CCC(N2CCC(C(=O)NC(C)(C)C(C)C)CC2)CC1 [Example 3] | > 20000 nM | 4% | 562 nM | 85% | > 20000 nM | 6% | 200 nM | 116% |  |  |
| CCOC(=O)N1CCCC(N2CCC(C#N)(C(=O)NC3(C)CCC3)CC2)CC1 (centres unmarked) [Example 82, ethyl 4-{4-cyano-4-[(1-methylcyclobutyl)carbamoyl]piperidin-1-yl}azepane-1-carboxylate] | > 20000 nM | 2% | 1620 nM | 81% | > 20000 nM | 16% | 55 nM | 89% |  |  |

Continued, values first:

| EC50 ([1]; CHO cells expressing human M3) | Emax [1] | EC50 ([2]; CHO cells expressing human M4) | Emax [2] | EC50 [3] | Emax [3] | EC50 [4] | Emax [4] | % Emax cf. ACh (M3) ([1]; CHO cells expressing human M3, Emax relative to ACh) | % Emax cf. ACh (M4) ([2]; CHO cells expressing human M4, Emax relative to ACh) | SMILES |
| --- | --- | --- | --- | --- | --- | --- | --- | --- | --- | --- |
| > 20000 nM | 7% | 525 nM | 71% | > 20000 nM | 15% | 37.2 nM | 89% |  |  | CC#CCOC(=O)N1CCCC(N2CCC(OC)(C(=O)NC3(C)CCC3)CC2)CC1 (centres unmarked) [Example 80, but-2-yn-1-yl 4-{4-methoxy-4-[(1-methylcyclobutyl)carbamoyl]piperidin-1-yl}azepane-1-carboxylate] |
| > 20000 nM | 12% | 537 nM | 73% | > 20000 nM | 12% | 61.7 nM | 88% |  |  | CCOC(=O)N1CCCC(N2CCC(F)(C(=O)NC3(C)CCCC3)CC2)CC1 (centres unmarked) [Example 48, ethyl 4-(4-fluoro-4-((1-methylcyclopentyl)carbamoyl)piperidin-1-yl)azepane-1-carboxylate] |
|  |  | 3720 nM | 64% |  |  | 813 nM | 94% |  |  | CCOC(=O)N1CCC[C@@H](N2CCC(C(=O)NC(C)(C)C)CC2)CC1 [Example 68, ethyl (4R)-4-[4-(tert-butylcarbamoyl)piperidin-1-yl]azepane-1-carboxylate] |
| > 20000 nM | 0% | 309 nM | 51% | > 20000 nM | 7% | 447 nM | 95% |  |  | CCOC(=O)N1CCCC(N2CCC(C(=O)N(CC)CC3CC3)CC2)CC1 (centres unmarked) [Example 26, ethyl 4-(4-((cyclopropylmethyl)(ethyl)carbamoyl)piperidin-1-yl)azepane-1-carboxylate] |
| > 20000 nM | 8% | 1350 nM | 46% | > 20000 nM | 4% | 64.6 nM | 108% |  |  | CCOC(=O)N1CCCC(N2CCC(C)(C(=O)NCC(C)C)CC2)CC1 (centres unmarked) [Example 56, ethyl 4-(4-methyl-4-((2-methylpropyl)carbamoyl)piperidin-1-yl)azepane-1-carboxylate] |
| > 20000 nM | 3% | 794 nM | 55% | > 20000 nM | 5% | 269 nM | 107% |  |  | CCOC(=O)N1CCCC(N2CCC(C(=O)NC3(C(F)(F)F)CCC3)CC2)CC1 (centres unmarked) [Example 70] |
|  |  |  |  |  |  |  |  | (112) % | (110) % | CC(=O)OCC[N+](C)(C)C [ACh] |
| > 20000 nM | 2% | 603 nM | 90% | > 20000 nM | 17% | 19.5 nM | 102% |  |  | CCOC(=O)N1CCCC(N2CCC(F)(C(=O)NC3(C)CCC3)CC2)CC1 (centres unmarked) [Example 50, ethyl 4-(4-fluoro-4-((1-methylcyclobutyl)carbamoyl)piperidin-1-yl)azepane-1-carboxylate] |
| > 20000 nM | 10% | 191 nM | 75% | > 20000 nM | 8% | 13.8 nM | 87% |  |  | CCOC(=O)N1CCCC(N2CCC(C(=O)NCC3(CC)CCC3)CC2)CC1 (centres unmarked) [Example 37, ethyl 4-(4-(((1-ethylcyclobutyl)methyl)carbamoyl)piperidin-1-yl)azepane-1-carboxylate] |
| > 20000 nM | 6% | 708 nM | 93% | > 20000 nM | 12% | 51.3 nM | 107% |  |  | CCOC(=O)N1CCCC(N2CCC(F)(C(=O)NC3CCCC3)CC2)CC1 (centres unmarked) [Example 51, ethyl 4-(4-fluoro-4-((cyclopentyl)carbamoyl)piperidin-1-yl)azepane-1-carboxylate] |
| > 20000 nM | 17% | 977 nM | 90% | > 20000 nM | 9% | 97.7 nM | 122% |  |  | CCOC(=O)N1CCCC(N2CCC(F)(C(=O)NCC3CCCC3)CC2)CC1 (centres unmarked) [Example 53, ethyl 4-(4-fluoro-4-((cyclopentylmethyl)carbamoyl)piperidin-1-yl)azepane-1-carboxylate] |
